# Test results as given in PMC10283052, “Intranasal delivery of mitochondrial protein humanin rescues cell death and promotes mitochondrial function in Parkinson's disease” (Theranostics, 2023).
# How the values were obtained:
# SH-SY5Y cells [1] = assay: Mitochondrial membrane potential (TMRM) and mitochondrial ROS (MitoSOX); type: cell-based, human
# Protocol: The SH-SY5Y cells were cultured in 96-well plates for 24 h before treatment. At the indicated time points, the cellular medium was removed, and the cells were washed with PBS. Mitochondrial ROS levels were measured using MitoSOX Red (Thermo Fisher Scientific) as described previously. The cells were counterstained using Hoechst 33342 (Sigma-Aldrich). Fluorescence intensity was quantified using a Synergy H1 multimode microplate reader (BioTek, Winooski, VT, USA) according to the manufacturer's protocol.
# The cells were seeded in 96-well plates and treated as described above. To analyze the mitochondrial membrane potential, TMRM (Thermo Fisher Scientific) was used according to the manufacturer's instructions. The cells were counterstained using Hoechst 33342 (Sigma-Aldrich). Fluorescence intensity was assessed using a Synergy H1 multimode microplate reader or an LSR Fortessa cytometer at the Neuroscience Translational Research Solution Center.
# [2] = system: midbrain dopaminergic neurons from embryonic mouse; assay: HN-induced intracellular humanin expression, western blot, primary neurons; type: cell-based; conditions: HN treatment 24 h (1 μM in Fig 2A), basal humanin undetectable
# Protocol: Primary mesencephalic cell cultures were prepared using gestational day 13.5 embryos from C57BL/6J mice, as previously described. The mesencephalon was dissected from the embryos and dissociated in a medium containing 0.25% trypsin-EDTA and 0.05% DNase in PBS for 15 min at 37 °C. Tissue samples were mechanically dissociated by gentle pipetting using Pasteur pipettes. After centrifugation at 400 x g for 5 min, the cells were plated in Neurobasal-A medium (Thermo Fisher Scientific, Waltham, MA, USA) supplemented with 2% B27 supplement (Thermo Fisher Scientific), 1× Glutamax (Thermo Fisher Scientific), 5% fetal bovine serum (FBS), 0.36% D-glucose, and 1% Penicillin/Streptomycin (P/S) in poly-L-ornithine/laminin (Sigma-Aldrich)-coated plates. On day 4 in vitro (DIV), the plating medium was replaced, and the neurons were used on DIV 8 for subsequent experiments.
# For HN treatment of cells, HN stock solution was first incubated at 37 ℃ with mild stirring for 0.5 h. The solution was then added to the culture medium to achieve a desirable final concentration as described above.
# (§1) Mouse brain tissue samples and cells were homogenized in radioimmunoprecipitation assay (RIPA) buffer (Cell Signaling, Danvers, MA, USA) in the presence of a protease and phosphatase inhibitor cocktail (Thermo Fisher Scientific). […] The results were analyzed using the ImageJ densitometry system. […]
# SH-SY5Y cells [3] = assay: Real-time qPCR of genes of mitochondrial function; type: cell-based, human; conditions: HN 20 μM, 24 h
# Protocol: For real-time qPCR, total RNA was extracted using TRIzol reagent (Thermo Fisher Scientific). cDNA was synthesized using a cDNA synthesis kit (Bioneer Corporation), according to the manufacturer's protocol. The mRNA levels were analyzed in a LightCycler 96 (Roche, Basel, Switzerland) using SYBR Green I master mix and SensiFAST™ SYBR® No-ROX Kit (Bioline, Paris, France). B2M (beta-2-microglobulin) gene expression was used to normalize gene expression data. The primer sequences used in this experiment are in Table S2.
# rat organotypic slices = assay: Ex vivo PD model, organotypic brain slices with 6-OHDA; type: cell-based; conditions: then 6-OHDA 100 μM, 2 h
# Protocol: Postnatal 5-7-day-old rat pups were used to prepare organotypic slices, as previously described, with minor modifications. The brain of anesthetized pups was aseptically removed. The brain hemispheres were separated and cut sagittally into 350-μm slices using a MacIlwain tissue chopper (MacIlwain, Mickle Laboratory, Cambridge, UK). The slices were transferred to ice-cold Gray's Balanced Salt solution containing CaCl2 (1.5 mM), NaCl (136 mM), KCl (5 mM), KH2PO4 (0.2 mM), MgCl2 (1 mM), MgSO4 (0.2 mM), NaHCO3 (0.2 mM), Na2PO4 (0.08 mM), and glucose (5.5 mM). […]
# as §1
# The organotypic slice cultures were exposed to 6-OHDA at the tissue surface on DIV 8 to avoid apoptosis due to nutrients and to induce proper maturation. […] Intracellular ATP was quantified using the CellTiter-Glo Luminescent Viability Kit (Promega Corporation, Madison, WI, USA), according to the manufacturer's protocol. Luminescence was measured using a SpectraMax L Microplate Reader (Molecular Devices).
substance,measurement,setting,value
"humanin (MAPRGFSCLLLLTSEIDLPVKRRA; Humanin; UniProt Q8IVG9 1-24, looked up) [HN, mitochondria-derived peptide encoded by the mitochondrial genome, synthesized by Fmoc-based SPPS at GL Biochem]",FCCP-induced mitochondrial depolarization,"SH-SY5Y cells [1]; HN pre-treatment 24 h, 20 μM, FCCP 5 μM, 15 min, flow cytometry",effective in restoring
same,mitochondrial membrane potential (TMRM),"SH-SY5Y cells [1]; HN pre-treatment before MPP+, flow cytometry, normalized to Hoechst 33342",effectively inhibited reduction in mitochondrial potential
same,mitochondrial ROS production (MitoSOX),"SH-SY5Y cells [1]; HN pre-treatment before MPP+, normalized to Hoechst 33342",effectively inhibited
same,intracellular humanin expression,[2],induced its intracellular expression in a dose-dependent manner
same,"transcript levels of mitochondrial biogenesis (PGC-1α, NRF1, ESRRA) and oxidative phosphorylation (SDHA, ATP5F1A, ATP5F1D) genes",SH-SY5Y cells [3],significant increase
same,expression of fatty acid metabolism and TCA cycle genes,"SH-SY5Y cells [3]; ACC2, ACLY, FASN, IDH3A",a significant alteration was not observed
same,"mitochondrial biogenesis markers PGC-1α and NRF1, western blot","rat organotypic slices; HN pre-treatment 1 μM, 24 h",stimulated mitochondrial biogenesis
same,ATP levels (CellTiter-Glo luminescence),"rat organotypic slices; HN pre-treatment 24 h, 0.1 or 1 μM",effectively inhibited significant depletion of ATP levels
